# Source: US20170000129A1, “METHOD FOR TREATING MINERAL SLURRIES WITH A BIOCIDE” (priority 2015, published 2017)
# Experiments:
# [1] = tested on: bacterial growth in kaolin slurry; experiment: Kaolin slurry preservation test: biocide-dosed 65% solids slurry plated on standard method agar, samples as treated; type: cell-based, bacteria
# Experimental: (§1) In the comparative testing, dry kaolin was mixed with water to achieve a 65% solid slurry material. This material contained no biocide. The slurry was then split into 200 gram aliquots and dosed with different biocides at different concentration as shown in Tables 1-3. All samples were kept at 50° C. until the end of the testing, which was up to 28 days.
# A number of different and known biocides were used in the study and they include glutaraldehyde (glute), 1,2 benzithiazolin-3-one (BIT), tetrahydro-3-5-methyl-2H-1,3,5-thiadizine-2-thione (thione), isothiazoline (ISO), bronopol (BNPD) or orthophenyl phenate (OPP). For shorthand purposes, the study refers to the tradename of the biocide, which is found in the above listing of the biocides. Metam sodium is designated as SMDC and MDTCMA is used without change
# (§2) The protocol for the testing of each sample is as follows: • 1) dosed with a recorded level of biocide; • 2) mixed for 24 hours contact time and plated using standard method agar for bacterial growth; • 3) remixed daily for 1 hour and retested for bacterial growth at Day 3; • 4) remixed daily for 1 hour and retested for bacterial growth at Day 7; • 5) remixed daily for 1 hour and retested for bacterial growth at Day 14; • 6) on day 20, samples were split into two containers: one container was inoculated (or challenged) with ˜10^5 cfu/ml bacteria, the other was left “as treated”, the challenge material was obtained from a contaminated kaolin product and is assumed to be representative of the types of bacteria that are seen in the kaolin industry, and the two sets of samples were prepared for Day 21 testing; • 7) both sets were remixed daily for 1 hour and retested for bacterial growth at Day 21; and • 8) both sets remixed daily for 1 hour and retested for bacterial growth at Day 28.
# Different contact times were used to see how quickly the bacterial population was effected by the biocide.
# [2] = tested on: bacteria from a contaminated kaolin product; experiment: Kaolin slurry preservation test, challenge: on day 20 samples inoculated with ~10^5 cfu/ml bacteria from a contaminated kaolin product; type: cell-based
# Experimental: as §1, §2
smiles,measurement,setting,value
"CN.CNC(=S)S [MDTCMA, methylammonium monomethyldithiocarbamate]","Log Red, contact time 1 day","[1]; 500 ppm, Table 1",0
same,"Log Red, contact time 3 day","[1]; 500 ppm, Table 1",1
same,"Log Red, contact time 7 day","[1]; 500 ppm, Table 1",3
same,"cfu/mL, contact time 1 day","[1]; 500 ppm, Table 1","13,140,000 cfu/mL"
same,"cfu/mL, contact time 3 day","[1]; 500 ppm, Table 1","1,880,000 cfu/mL"
same,"cfu/mL, contact time 7 day","[1]; 500 ppm, Table 1","40,000 cfu/mL"
same,performance against the BIT biocide when measuring log reduction,"[1]; 500 ppm, Table 1",performed at least as well as the BIT biocide
same,"Log Red, contact time 1 day","[1]; 500 ppm, Table 2",0
same,"Log Red, contact time 3 day","[1]; 500 ppm, Table 2",1
same,"Log Red, contact time 7 day","[1]; 500 ppm, Table 2",4
same,"Log Red, contact time 14 day","[1]; 500 ppm, Table 2",4
same,"Log Red, contact time 21 day","[1]; 500 ppm, Table 2",5
same,"Log Red, contact time 28 day","[1]; 500 ppm, Table 2",4
same,"cfu/mL, contact time 1 day","[1]; 500 ppm, Table 2","18,840,000 cfu/mL"
same,"cfu/mL, contact time 3 day","[1]; 500 ppm, Table 2","1,960,000 cfu/mL"
same,"cfu/mL, contact time 7 day","[1]; 500 ppm, Table 2","5,600 cfu/mL"
same,"cfu/mL, contact time 14 day","[1]; 500 ppm, Table 2","3,100 cfu/mL"
same,"cfu/mL, contact time 21 day","[1]; 500 ppm, Table 2","1,800 cfu/mL"
same,"cfu/mL, contact time 28 day","[1]; 500 ppm, Table 2","2,500 cfu/mL"
same,"Log Red, contact time 1 day","[1]; 1000 ppm, Table 1",1
same,"Log Red, contact time 3 day","[1]; 1000 ppm, Table 1",2
same,"Log Red, contact time 7 day","[1]; 1000 ppm, Table 1",5
same,"cfu/mL, contact time 1 day","[1]; 1000 ppm, Table 1","7,060,000 cfu/mL"
same,"cfu/mL, contact time 3 day","[1]; 1000 ppm, Table 1","1,680,000 cfu/mL"
same,"cfu/mL, contact time 7 day","[1]; 1000 ppm, Table 1","1,000 cfu/mL"
same,performance against the BIT biocide when measuring log reduction,"[1]; 1000 ppm, Table 1",far superior
same,"Log Red, contact time 1 day","[1]; 1000 ppm, Table 2",0
same,"Log Red, contact time 3 day","[1]; 1000 ppm, Table 2",4
same,"Log Red, contact time 7 day","[1]; 1000 ppm, Table 2",4
same,"Log Red, contact time 14 day","[1]; 1000 ppm, Table 2",4
same,"Log Red, contact time 21 day","[1]; 1000 ppm, Table 2",5
same,"Log Red, contact time 28 day","[1]; 1000 ppm, Table 2",4
same,"cfu/mL, contact time 1 day","[1]; 1000 ppm, Table 2","14,520,000 cfu/mL"
same,"cfu/mL, contact time 3 day","[1]; 1000 ppm, Table 2","7,000 cfu/mL"
same,"cfu/mL, contact time 7 day","[1]; 1000 ppm, Table 2","3,200 cfu/mL"
same,"cfu/mL, contact time 14 day","[1]; 1000 ppm, Table 2","2,500 cfu/mL"
same,"cfu/mL, contact time 21 day","[1]; 1000 ppm, Table 2","1,100 cfu/mL"
same,"cfu/mL, contact time 28 day","[1]; 1000 ppm, Table 2","1,700 cfu/mL"
same,"Log Red, contact time 1 day","[1]; 1000 ppm, Table 3",3
same,"Log Red, contact time 3 day","[1]; 1000 ppm, Table 3",2
same,"Log Red, contact time 7 day","[1]; 1000 ppm, Table 3",2
same,"Log Red, contact time 14 day","[1]; 1000 ppm, Table 3",3
same,"Log Red, contact time 21 day","[1]; 1000 ppm, Table 3",2
same,"Log Red, contact time 28 day","[1]; 1000 ppm, Table 3",2
same,"cfu/mL, contact time 1 day","[1]; 1000 ppm, Table 3",100 cfu/mL
same,"cfu/mL, contact time 3 day","[1]; 1000 ppm, Table 3",100 cfu/mL
same,"cfu/mL, contact time 7 day","[1]; 1000 ppm, Table 3",100 cfu/mL
same,"cfu/mL, contact time 14 day","[1]; 1000 ppm, Table 3",100 cfu/mL
same,"cfu/mL, contact time 21 day","[1]; 1000 ppm, Table 3",100 cfu/mL
same,"cfu/mL, contact time 28 day","[1]; 1000 ppm, Table 3",100 cfu/mL
same,"Log Red, contact time 1 day","[1]; 1500 ppm, Table 3",3
same,"Log Red, contact time 3 day","[1]; 1500 ppm, Table 3",2
same,"Log Red, contact time 7 day","[1]; 1500 ppm, Table 3",2
same,"Log Red, contact time 14 day","[1]; 1500 ppm, Table 3",3
same,"Log Red, contact time 21 day","[1]; 1500 ppm, Table 3",2
same,"Log Red, contact time 28 day","[1]; 1500 ppm, Table 3",2
same,"cfu/mL, contact time 1 day","[1]; 1500 ppm, Table 3",100 cfu/mL
same,"cfu/mL, contact time 3 day","[1]; 1500 ppm, Table 3",100 cfu/mL
same,"cfu/mL, contact time 7 day","[1]; 1500 ppm, Table 3",100 cfu/mL
same,"cfu/mL, contact time 14 day","[1]; 1500 ppm, Table 3",100 cfu/mL
same,"cfu/mL, contact time 21 day","[1]; 1500 ppm, Table 3",100 cfu/mL
same,"cfu/mL, contact time 28 day","[1]; 1500 ppm, Table 3",100 cfu/mL
same,biocide efficacy compared with known biocides,"[1]; Table 2, up to 28 days",comparable biocide efficacy as compared to known biocides
same,biocide effectiveness compared with thione,"[1]; Table 3, up to the 28 day testing, not challenge testing, 1000 and 1500 ppm",performed on a par with the thione
same,"Log Red, 21 day Challenge","[2]; 500 ppm, Table 2",3
same,"Log Red, 28 day Challenge","[2]; 500 ppm, Table 2",3
same,"cfu/mL, 21 day Challenge","[2]; 500 ppm, Table 2","73,000 cfu/mL"
same,"cfu/mL, 28 day Challenge","[2]; 500 ppm, Table 2","65,000 cfu/mL"
same,"Log Red, 21 day Challenge","[2]; 1000 ppm, Table 2",3
same,"Log Red, 28 day Challenge","[2]; 1000 ppm, Table 2",3
same,"cfu/mL, 21 day Challenge","[2]; 1000 ppm, Table 2","52,000 cfu/mL"
same,"cfu/mL, 28 day Challenge","[2]; 1000 ppm, Table 2","32,000 cfu/mL"
same,"Log Red, 21 day Challenge","[2]; 1000 ppm, Table 3",2
same,"Log Red, 28 day Challenge","[2]; 1000 ppm, Table 3",1
same,"cfu/mL, 21 day Challenge","[2]; 1000 ppm, Table 3","196,000 cfu/mL"
same,"cfu/mL, 28 day Challenge","[2]; 1000 ppm, Table 3","3,680,000 cfu/mL"
same,"Log Red, 21 day Challenge","[2]; 1500 ppm, Table 3",3
same,"Log Red, 28 day Challenge","[2]; 1500 ppm, Table 3",1
same,"cfu/mL, 21 day Challenge","[2]; 1500 ppm, Table 3","18,200 cfu/mL"
same,"cfu/mL, 28 day Challenge","[2]; 1500 ppm, Table 3","2,300,000 cfu/mL"
same,biocide effectiveness in challenge testing,"[2]; Table 3, challenge testing",still performed adequately
same,"biocide effectiveness after inoculation, overall result of the studies",[2]; after inoculation,effective biocide
